In US9056923B2, “Mimetic peptides derived from collagen type IV and their use for treating angiogenesis- and lymphagiogenesis-dependent diseases” (THE JOHNS HOPKINS UNIVERSITY, priority 2010, dated 2015):
Ends that are not written are not given here.

Experiments:
HUVEC [1] = type: cell-based, human
Procedure, shortened: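 Adhesion of 25,000 cells per well, with or without peptide, followed by real-time electrical impedance on electrode plates over 3 hours. At least two independent replicates, each run in duplicate.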

[2] = test system: microvascular endothelial cells (MEC); test: MEC adhesion assay; type: cell-based
Experimental: Similar to the migration assays, the inhibition activity of the peptide in cellular adhesion was assessed using the RT-CIM technology. In this case, 25,000 cells/well were plated in 16 wells E-plates (Roche, Basel Switzerland) in the presence or absence of the peptide. The adhesion was monitored over time (3 hours) by measuring changes in the electrical impedance, which is a direct measure of the cells adhering on the electrodes. […] Assays were performed in at least two independent replicates and each replicate was performed using two experimental duplicates.

HUVEC [3] = test: HUVEC tube formation assay on Matrigel; type: cell-based, human
Procedure, shortened: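 HUVEC (15,000/well) plated on polymerized Matrigel in complete media with or without peptide for 19 h at 37 °C. Tube networks imaged by microscopy, one random field per well, in triplicate wells across at least two independent experiments.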

[4] = test system: microvascular endothelial cells (MEC); test: MEC migration assay; type: cell-based
Experimental: The inhibitory potential of the peptides was measured using a real time migration assay system based on electrical impedance (RT-CIM, ACEA Biosciences, CA). CIM 16 well plates (Roche, 05665817001) are composed of a top and bottom chamber separated by a microporous (8 μm) polycarbonate membrane. The membrane was coated with fibronectin (20 μg/mL), and 45,000 cells/well in serum free media with or without peptides were added to the top compartment. Media with chemoattractant (i.e., fully supplemented EBM-2) was added to the bottom compartment of the chamber and the plate was incubated at 37° C. for 20 hours. The sensors integrated on the bottom side of the membrane monitor and continuously record changes in impedance as the cells move through the membrane. The RT-CIM technology allows for easy quantification of cell migration by monitoring the cell index derived from the measured impedances. Assays were performed in at least two independent replicates and each replicate was performed using two experimental duplicates.

LRRFSTMPFMFININNVINF-NH2 [SP2024]
IC50 (HUVEC [1]; 3 h): 2350 ± 1300 nM
Adhesion Inhibition (100 uM) (HUVEC [1]; HUVEC, 100 uM peptide): 94.45%
Activity in Adhesion (HUVEC [1]; HUVEC, Yes/No summary, active = inhibitory potential greater than 30%): Yes
inhibition of adhesion of MEC [2]: quite active
Tube formation Inhibition (100 uM) (HUVEC [3]; 100 uM peptide): Complete
Activity in Tube formation (HUVEC [3]; Yes/No summary): Yes
inhibition of migration of MEC [4]: quite active
